From patent US6790833B2, “Antifungal and antibacterial agents” (priority 2001, dated 2004)
“Also recorded” adds a separate entry of the source.

Assays:
[1] = system: fungi or bacteria; assay: Antifungal and antibacterial activity assays, overall statements; type: cell-based
Method: (§1) Two fold serial dilutions of each peptide (ranging from 100 μM down to 1.5625 μM) in 20 μl of 10 mM Na phosphate buffer, pH 7.4, were incubated with an equal volume of bacterial or fungal strain (10^5 cells/ml) for 1.5 hours at 30° C. for S. cerevisiae and 37° C. for the rest of strains tested. At the end of incubation, the samples were diluted 20 fold and aliquots (˜120 cells) of each sample were plated on appropriate plates depending on the strain tested, as indicated above. Plates were incubated for 1 to 7 days aerobically or anaerobically, depending on the strain tested. Colonies were then counted, and the loss of cell viability was plotted as a function of protein concentration. Fungicidal activities against C. albicans and C. neoformans were also tested at 4° C.
(§2) A time course study of peptide-induced killing was statistically analyzed by student t-test.

[2] = system: C. neoformans; assay: Antifungal (cidal) activity assay, loss of cell viability; type: cell-based, Cryptococcus neoformans; conditions: for ED50 (95% confidence limit) C. neoformans: Example 2, 1.5 hours, 37°, 10 mM Na phosphate buffer pH 7.4; for Loss of Cell viability (%): 6.25 μM
From the text: (§3) Azole-sensitive (# 2-76) and azole-resistant (# 12-99) clinical isolates of C. albicans were a gift from Dr. Theodore C. White (University of Washington and Seattle Biomedical Research Institute, Seattle, Wash.). An azole-sensitive Candida glabrata (C. glabrata) was purchased from ATCC (ATCC 90030) and its azole-resistant counterpart, clinical isolate 65C, was obtained from Dr. John E. Bennett (National Institute of Allergy and Infectious Diseases, Bethesda, Md.). A clinical isolate of Candida krusei (C. krusei) was obtained from the Erie County Medical Center, Buffalo, N.Y. Amphotericin B-sensitive (CN2) and -resistant (CN2843) C. neoformans strains were obtained from AIDS patients with cryptococcal meningitis and were generously provided by Dr. John H. Rex (University of Texas Medical School, Houston, Tex.). Additionally, Saccharomyces cerevisiae (S. serevisiae) strain S288C was provided by Dr. D. Kosman, Department of Biochemistry, University at Buffalo, the State University of New York. All fungi were streaked and grown on SAB plates at 37° C., except S. cerevisiae, which was grown at 30° C. until large colonies were formed. One colony was then picked and resuspended in Na phosphate buffer (pH 7.4) and the concentration was adjusted to 1×10^5 cell/ml for the antifungal assay described below.
as §1
(§4) To test the effect of inhibitors of oxidative phosphorylation in the mitochondrial system on peptide-induced killing, C. albicans and C. neoformans (CN2) were preincubated with either 20 mM sodium azide or 300 μM CCCP for 2 hours at 37° C. The cidal assays were then carried out as described above. In separate control experiments, both inhibitors were evaluated for their toxicity toward C. albicans and C. neoformans (CN2) in the absence of peptides. At these concentrations, neither compound had any cidal effect. In addition, the fungicidal activities of MUC7 20-mer and Hsn-5 (25 μM) in 10 mM Na phosphate buffer (pH 7.4) in the presence of varying concentrations (1-50 mM) of Ca^++ (as CaCl2) or Mg^++ (as MgCl2) were examined.
as §2
(§5) Two fold serial dilutions of each peptide (ranging from 50 or 25 μM down to 1.5625 μM) in 20 μl of 10 mM Na phosphate buffer, pH 7.4, were incubated with an equal volume of fungal strain (10^5 cells/ml, also in Na phosphate buffer) for 1.5 hours at 37°. At the end of incubation, the samples were diluted 20 fold with the same buffer and aliquots (˜150 cells) of each sample were plated on SAB plates. Plates were incubated for 1 to 2 days for C. albicans and C. neoformans, respectively. Colonies were then counted, and the loss of cell viability was plotted as a function of protein concentration. The statistical analysis was as described in Example 1.

[3] = system: C. albicans; assay: as above; type: cell-based, Candida albicans; conditions: for ED50 (95% confidence limit) C. albicans: Example 2, 1.5 hours, 37°, 10 mM Na phosphate buffer pH 7.4; for Loss of Cell viability (%): 6.25 μM
From the text: as §3, §1, §4, §2, §5

[4] = system: C. albicans; assay: Fluorescence light and confocal microscopy, internalization of FITC-labeled peptide; type: cell-based, Candida albicans; conditions: 50 μM, 45-90 minutes, 37° C.
Method: (§6) The internalization of MUC7 20-mer into fungi was visualized in C. albicans and C. neoformans. Untreated cells (10^7) or cells preincubated with 20 mM sodium azide, 300 μM CCCP, 50 mM Ca^++ or 50 mM Mg^++ were then treated with 50 μM FITC-MUC7 20-mer for 45-90 minutes in 100 μl of Na phosphate buffer (10 mM, pH 7.4) at 37° C. Untreated cells were also incubated with 50 μM FITC-MUC7 20-mer at 4° C. The cells were then extensively washed with phosphate buffer, concentrated and resuspended in the same buffer. The cell suspension was then quickly mounted on slides with sealed cover-slips. Fluorescence light micrographs were made on a Nikon Optiphot microscope, with a fluorescent light source.
(§7) The intracellular localization of FITC-MUC7-20mer was investigated in a double-labeling experiment using MitoTracker Red mitochondrial probe. C. albicans and C. neoformans were incubated with 500 nM MitoTracker Red in 10 mM Na phosphate buffer, pH 7.4 for 15 minutes at room temperature, washed three times with the same buffer, and subsequently incubated with 50 μM FITC-MUC7 20-mer. After 20 min. incubation at 37° C., the suspension was washed with phosphate buffer extensively. The cell suspension was then quickly mounted on slides with sealed cover-slips. Confocal fluorescence microscopy was performed with a BioRad MRC-1024 confocal microscope system with Krypton-argon laser which outputs 488, 568 and 647 nm excitation line and Nikon upright epifluorescence microscope (Zeiss 60× oil immersion planApp objective with 1.4 numerical aperture).
(§8) The internalization of MUC7 20-mer and 12-mer-3 into fungi was visualized using FITC labeled peptides. Cells (10^7) were treated with 50 μM FITC-MUC7 20-mer or 12-mer-3 for 45-90 mins in 100 μl of Na phosphate buffer (10 mM, pH 7.4) at 37° C. The cells were then processed and visualized as described in Example 1.

[5] = system: C. neoformans; assay: as above; type: cell-based, Cryptococcus neoformans; conditions: 50 μM, 45-90 minutes, 37° C.
Method: as §6, §7, §8

[6] = system: A. actinomycetemcomitans; assay: Antibacterial (cidal) activity assay, loss of cell viability; type: cell-based, Actinobacillus actinomycetemcomitans
Method: (§9) The following bacterial strains were tested: Streptococcus mutans (S. mutans) GS-5, Streptococcus gordonii (S. gordonii) Challis, Escherichia coli (E. coli) HB101, Pseudomonas aeruginosa (P. aeruginosa) ATCC 17648, Actinobacillus actinomycetemcomitans (A. actinomycetemcomitans) NCTC9710, Porphyromonas gingivalis (P. gingivalis) 381 and W50. S. mutans, S. gordonii, A. actinomycetemcomitans and P. aeruginosa were grown anaerobically by candle jar extinction at 37° C. on TSB plates. P. gingivalis was grown in anaerobic chamber at 37° C. on sheep blood agar plates. E. coli was grown aerobically at 37° C. on LB agar plates.
as §1, with “Plates were incubated for 1 to 7 days aerobically or anaerobically, depending on the strain tested.” left out, “Fungicidal activities against C. albicans and C. neoformans were also tested at 4° C.” left out
as §2

[7] = system: S. mutans; assay: as above; type: cell-based; conditions: Streptococcus mutans, read-out: ED50 (95% confident limit)
Method: as §9
as §1, with “Plates were incubated for 1 to 7 days aerobically or anaerobically, depending on the strain tested.” left out, “Fungicidal activities against C. albicans and C. neoformans were also tested at 4° C.” left out
as §2

How did the “cidal activity against fungi or bacteria” value [1] turn out when “12-mer (amino acids 40-51 of MUC7D1), SEQ ID NO.6: RKSYKCLHKRCR (OTHER INFORMATION: 12-mer; Amino acids 40-51 of the MUC7D1 peptide.) [Peptide 12-mer]” was run?
Its value is “active against a variety of fungi and bacteria”.

How did the “ED50 (95% confidence limit) C. neoformans” value [2] turn out when “12-mer with arginine and lysine at position 40 and 41 replaced by alanine, SEQ ID NO.11: AASYKCLHKRCR (OTHER INFORMATION: 12-mer-2 variant of the 12-mer) [Peptide 12-mer-2]” was run?
The value was “comparable to that of unaltered 12-mer”.

“12-mer with both cysteines replaced by alanine, SEQ ID NO.13: RKSYKALHKRAR (OTHER INFORMATION: 12-mer-4 variant of the 12-mer) [Peptide 12-mer-4]” was tested. Which “ED50 (95% confidence limit) C. albicans” value [3] did it give?
Its value is “did not alter 12-mer antifungal activity”.

What about the “ED50 (95% confidence limit) C. neoformans” value [2] of the same compound?
Its value is “did not alter 12-mer antifungal activity”.

What does the source list for “12-mer with positions 40, 41, 44, 48, 49 and 51 replaced by alanine, SEQ ID NO.12: AASYACLHAACA (OTHER INFORMATION: 12-mer-3 variant of the 12-mer) [Peptide 12-mer-3]”?
internalization of FITC-labeled peptide [4]: No internalization; ED50 (95% confidence limit) C. albicans [3]: no anticandidal activity; internalization of FITC-labeled peptide [5]: No internalization; ED50 (95% confidence limit) C. neoformans [2]: cidal activity was diminished; also recorded: No activity

Which results are given for `C[C@H](NC(=O)[C@H](Cc1cnc[nH]1)NC(=O)[C@H](CO)NC(=O)[C@@H](N)CC(=O)O)C(=O)N[C@@H](CCCCN)C(=O)N[C@@H](CCCNC(=N)N)C(=O)N[C@@H](Cc1cnc[nH]1)C(=O)N[C@@H](Cc1cnc[nH]1)C(=O)NCC(=O)N[C@@H](Cc1ccc(O)cc1)C(=O)N[C@@H](CCCCN)C(=O)N[C@@H](CCCNC(=N)N)C(=O)N[C@@H](CCCCN)C(=O)N[C@@H](Cc1ccccc1)C(=O)N[C@@H](Cc1cnc[nH]1)C(=O)N[C@@H](CCC(=O)O)C(=O)N[C@@H](CCCCN)C(=O)N[C@@H](Cc1cnc[nH]1)C(=O)N[C@@H](Cc1cnc[nH]1)C(=O)N[C@@H](CO)C(=O)N[C@@H](Cc1cnc[nH]1)C(=O)N[C@@H](CCCNC(=N)N)C(=O)NCC(=O)N[C@@H](Cc1ccc(O)cc1)C(=O)O` [Hsn-5, reference compound]?
effect of pretreatment with CCCP or sodium azide on peptide-induced killing ([3]; C. albicans, 300 μM CCCP or 20 mM sodium azide, 2 hours): rescued Candida cells from killing; potency at 4° C. ([3]; C. albicans, 4° C.): limited potency; Loss of Cell viability (%) ([3]; C. albicans, 5 min): 0 + 0%; Loss of Cell viability (%) ([3]; C. albicans, 15 min): 1 + 3%; Loss of Cell viability (%) ([3]; C. albicans, 30 min): 11 + 4%; Loss of Cell viability (%) ([3]; C. albicans, 45 min): 34 + 2%; Loss of Cell viability (%) ([3]; C. albicans, 90 min): 42 + 3%; Peptide-induced killing without the cations ([3]; C. albicans, Na phosphate buffer, 25 μM): 100%; concentration for killing bacteria relative to killing fungi [1]: more than 10 fold; loss of cell viability at the highest concentration tested ([6]; 100 μM): 24%; effect of pretreatment with CCCP or sodium azide on peptide-induced killing ([2]; C. neoformans, 300 μM CCCP or 20 mM sodium azide, 2 hours): unable to do the same; activity at 4° C. ([2]; C. neoformans, 4° C.): hardly affected; Loss of Cell viability (%) ([2]; C. neoformans, 5 min): 9 ± 2%; Loss of Cell viability (%) ([2]; C. neoformans, 15 min): 43 + 3%; Loss of Cell viability (%) ([2]; C. neoformans, 30 min): 59 + 5%; Loss of Cell viability (%) ([2]; C. neoformans, 45 min): 64 + 1%; Loss of Cell viability (%) ([2]; C. neoformans, 90 min): 71 + 7%; Peptide-induced killing without the cations ([2]; C. neoformans, Na phosphate buffer, 25 μM): 100%

With `[H]/N=C(/N)N[C@H]1[C@H](O)[C@@H](O)[C@H](O[C@@H]2O[C@@H](C)[C@](O)(C=O)[C@H]2O[C@@H]2O[C@@H](CO)[C@H](O)[C@@H](O)[C@@H]2NC)[C@@H](N/C(N)=N\[H])[C@@H]1O` [streptomycin] as the compound, how does the EC50 [7] read?
Its EC50 is 64 µM.

What about the EC50 ([6]; Aggregatibacter actinomycetemcomitans, read-out: ED50 (95% confident limit)) of the same compound?
Its EC50 is 2.7 µM.

Which results are given for “from the N-terminus of the 20-mer (amino acids 32-39), SEQ ID NO.10: LAHQKPFI (OTHER INFORMATION: 8-mer-N; Amino acids 32-3 9 of the MUC7D1 peptide.) [Peptide 8-mer-N]”?
ED50 (95% confidence limit) C. albicans [3]: No activity; ED50 (95% confidence limit) C. albicans ([3]; listed as N-terminal 8-mer): no antifungal activity; antibacterial activity [1]: did not exhibit antibacterial activity; ED50 (95% confidence limit) C. neoformans [2]: No activity; ED50 (95% confidence limit) C. neoformans ([2]; listed as N-terminal 8-mer): no antifungal activity
